Test results from patent US9220795B2, “Indole derivatives” (priority 2011, dated 2015).

What was measured:
Wistar rat heart PBR = molecular target: T1, Wistar rat heart PBR (Rattus norvegicus, UniProt P16257); experiment: In vitro potency assay: competition for binding to PBR against 0.3 nM [3H]PK-11195; details: non-radioactive analogues; vs 0.3 nM [3H]PK-11195; 15 minutes at 25° C.; 6 concentrations
T1 construct: from tissue; host or cells: Wistar rat heart
Description: Affinity for PBR was screened using a method adapted from Le Fur et al (Life Sci. 1983; USA 33: 449-57). Non-radioactive analogues of in vivo imaging agents of the invention were tested along with a non-radioactive analogue of a previous tetracyclic indole imaging agent (from co-pending patent application PCT/EP2009/062827; synthesis described in Example 17 below):
Each test compound (dissolved in 50 mM Tris-HCl, pH 7.4, 10 mM MgCl2 containing 1% DMSO) competed for binding to Wistar rat heart PBR against 0.3 nM [^3H] PK-11195. The reaction was carried out in 50 mM Tris-HCl, pH 7.4 10 mM MgCl2 for 15 minutes at 25° C.

[1] = In vivo biodistribution method; design: species or system Adult male Wistar rats; details: for Brain 2 min (% ID/g): 2 min after injection via lateral tail vein, 1-3 MBq, n=3; for % Activity in Brain = Parent @ 60 min: 60 min after injection; for OB 30 min (% ID/g): olfactory bulb, 30 min after injection; for OB: Str 30 min: ratio olfactory bulb to striatum at 30 min; for Str 2: 30 min: ratio striatum 2 min to 30 min
Description: Imaging agents of the invention were tested in an in vivo biodistribution model along with a previous tetracyclic imaging agent (from co-pending patent application PCT/EP2009/062827; synthesis described in Example 18 below).

Row | Structure (SMILES) | Ki (Wistar rat heart PBR) [nM] | Brain 2 min (% ID/g) [1] [% ID/g] | % Activity in Brain = Parent @ 60 min [1] [%] | OB 30 min (% ID/g) [1] [% ID/g] | OB: Str 30 min [1] | Str 2: 30 min [1]
1 | CCN(CC)C(=O)C1Sc2ccccc2-c2c1c1cc(OC)ccc1n2CCF (racemic) [tetracyclic indole, (+−)-11-(2-[^18F]fluoroethyl)-8-methoxy-6,11-dihydro-5-thia-11-aza-benzo[a]fluorene-6-carboxylic acid diethyl amide, reference compound] | 0.369 | – | – | – | – | –
2 | CCN(CC)C(=O)C1CCCc2c1c1cc(F)ccc1n2CCF (stereo not drawn) [Imaging agent 9, 6-Fluoro-9-(2-[^18F]fluoro-ethyl)-2,3,4,9-tetrahydro-1H-carbazole-4-carboxylic acid diethylamide] | 3.79 | – | – | – | – | –
3 | CCN(CC)C(=O)C1CCCc2c1c1c(F)cccc1n2CC[18F] (stereo not drawn) [Imaging agent 10, 5-Fluoro-9-(2-[^18F]fluoro-ethyl)-2,3,4,9-tetrahydro-1H-carbazole-4-carboxylic acid diethylamide] | – | 0.50 | 92.70 | 0.51 | – | –
4 | CN(Cc1ccccc1)C(=O)C1CCCc2c1c1ccccc1n2CCF (stereo not drawn) [Imaging agent 7, 9-(2-[^18F]fluoro-ethyl)-2,3,4,9-tetrahydro-1H-carbazole-4-carboxylic acid benzyl-methyl-amide] | 1.25 | – | – | – | – | –
5 | O=C(C1CCCc2c1c1ccccc1n2CCF)N1CCCCC1 (stereo not drawn) [Imaging agent 6, [9-(2-[^18F]-Fluoro-ethyl)-2,3,4,9-tetrahydro-1H-carbazol-4-yl]-piperidin-1-yl-methanone] | 18.3 | – | – | – | – | –
6 | CCN(CC)C(=O)C1CC(C)Cc2c1c1ccccc1n2CC[18F] (stereo not drawn) [Imaging agent 11, 9-(2-[^18F]-Fluoro-ethyl)-2-methyl-2,3,4,9-tetrahydro-1H-carbazole-4-carboxylic acid diethylamide] | – | 0.51 | 90.37 | 0.42 | 3.50 | 3.33
7 | CCN(CC)C(=O)C1CCCc2c1c1cc(F)ccc1n2CC[18F] (stereo not drawn) [Imaging agent 9, 6-Fluoro-9-(2-[^18F]fluoro-ethyl)-2,3,4,9-tetrahydro-1H-carbazole-4-carboxylic acid diethylamide] | – | 0.56 | 84.30 | 0.41 | – | –
8 | CCN(CC)C(=O)C1Sc2ccccc2-c2c1c1cc(OC)ccc1n2CC[18F] (racemic) [tetracyclic indole, (+−)-11-(2-[^18F]fluoroethyl)-8-methoxy-6,11-dihydro-5-thia-11-aza-benzo[a]fluorene-6-carboxylic acid diethyl amide, reference compound] | – | 0.32 | 96.00 | 0.31 | 2.07 | 1.73
9 | CN(Cc1ccccc1)C(=O)C1CCCc2c1c1ccccc1n2CC[18F] (stereo not drawn) [Imaging agent 7, 9-(2-[^18F]fluoro-ethyl)-2,3,4,9-tetrahydro-1H-carbazole-4-carboxylic acid benzyl-methyl-amide] | – | 0.55 | 81.28 | 0.34 | 3.40 | 4.70
10 | CCN(CC)C(=O)C1CCCc2c1c1c(OC)cccc1n2CCF (stereo not drawn) [Imaging agent 5, 9-(2-[^18F]-Fluoro-ethyl)-5-methoxy-2,3,4,9-tetrahydro-1H-carbazole-4-carboxylic acid diethylamide] | 2.35 | – | – | – | – | –
11 | CCN(CC)C(=O)C1CC(C)Cc2c1c1ccccc1n2CCF (stereo not drawn) [Imaging agent 11, 9-(2-[^18F]-Fluoro-ethyl)-2-methyl-2,3,4,9-tetrahydro-1H-carbazole-4-carboxylic acid diethylamide] | 2.12 | – | – | – | – | –
